Assay results reported in ChEMBL document CHEMBL1201862, “PubChem BioAssay data set” (2004).
The source made the active and inactive calls.

How the values were obtained:
Bcl-2-related protein A1 = target: T1, Bcl-2-related protein A1 (Mus musculus, UniProt Q07440); type: functional;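 further: confirmatory dose–response counterscreen on Bfl-1, used to check hits from a UBC13 polyubiquitin inhibitor campaign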
T1 sequence (Q07440 whole entry): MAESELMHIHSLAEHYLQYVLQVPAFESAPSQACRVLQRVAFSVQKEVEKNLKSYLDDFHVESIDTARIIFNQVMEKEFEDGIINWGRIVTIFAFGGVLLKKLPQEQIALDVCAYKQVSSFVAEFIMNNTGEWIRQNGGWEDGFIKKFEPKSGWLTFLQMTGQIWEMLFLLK

[1] = target: T2, Ubiquitin-conjugating enzyme E2 N (Homo sapiens, UniProt P61088); type: functional
T2 sequence (P61088 whole entry): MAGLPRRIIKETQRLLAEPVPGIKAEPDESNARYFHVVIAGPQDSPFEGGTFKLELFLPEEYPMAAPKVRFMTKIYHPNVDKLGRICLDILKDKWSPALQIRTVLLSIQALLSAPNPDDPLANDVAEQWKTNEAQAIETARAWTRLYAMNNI

[2] = target: T2, Ubiquitin-conjugating enzyme E2 N; type: functional; remark: listed apart in the source
Vero = experiment: cells; type: functional; conditions: Chlorocebus sabaeus
[3] = target: Heat shock protein HSP 90-alpha (Homo sapiens, UniProt P07900); type: functional, organism-based
HEK293 [4] = experiment: cells; conditions: Homo sapiens
Beta-galactosidase = Beta-galactosidase (Escherichia coli, UniProt Q8VNN2); experiment: beta-galactosidase enzyme inhibitors and activators, dose response, artefact control for CCR6 antagonist project, biochemical, E. coli enzyme, set 3 (AID 504712); type: functional
HEK293 [5] = experiment: cells; conditions: Homo sapiens; remark: listed apart in the source
Cytochrome P450 2C9 = Cytochrome P450 2C9 (Homo sapiens, UniProt P11712)
Cytochrome P450 2C19 = Cytochrome P450 2C19 (Homo sapiens, UniProt P33261); experiment: Cytochrome panel assay with activity outcomes. Panel member name: p450-cyp2c19 Compounds with AC50 equal or less than 10 uM are considered active; type: functional; conditions: read-out: AC50
[6] = HEp-2 cell cytotoxicity, dose response, cytotoxicity control for RSV inhibitor project, HTS (AID 2410); type: functional; conditions: human respiratory syncytial virus
[7] = target: G-protein coupled receptor 55 (Homo sapiens, UniProt Q9Y2T6); experiment: GPR55 antagonists, SAR follow-up, counter-screen for GPR35 antagonist project, imaging, image-based (AID 2397); type: functional
Protein RecA = target: T3, Protein RecA (Mycobacterium tuberculosis, UniProt P9WHJ3); experiment: Fluorescence Cell-Free Homogeneous Dose Retest to Identify Inhibitors of RecA-Intein Splicing Activity. [Related pubchem assays (depositor defined):AID2097, AID2223, AID489010, AID492950]; type: functional
T3 sequence (P9WHJ3 whole entry): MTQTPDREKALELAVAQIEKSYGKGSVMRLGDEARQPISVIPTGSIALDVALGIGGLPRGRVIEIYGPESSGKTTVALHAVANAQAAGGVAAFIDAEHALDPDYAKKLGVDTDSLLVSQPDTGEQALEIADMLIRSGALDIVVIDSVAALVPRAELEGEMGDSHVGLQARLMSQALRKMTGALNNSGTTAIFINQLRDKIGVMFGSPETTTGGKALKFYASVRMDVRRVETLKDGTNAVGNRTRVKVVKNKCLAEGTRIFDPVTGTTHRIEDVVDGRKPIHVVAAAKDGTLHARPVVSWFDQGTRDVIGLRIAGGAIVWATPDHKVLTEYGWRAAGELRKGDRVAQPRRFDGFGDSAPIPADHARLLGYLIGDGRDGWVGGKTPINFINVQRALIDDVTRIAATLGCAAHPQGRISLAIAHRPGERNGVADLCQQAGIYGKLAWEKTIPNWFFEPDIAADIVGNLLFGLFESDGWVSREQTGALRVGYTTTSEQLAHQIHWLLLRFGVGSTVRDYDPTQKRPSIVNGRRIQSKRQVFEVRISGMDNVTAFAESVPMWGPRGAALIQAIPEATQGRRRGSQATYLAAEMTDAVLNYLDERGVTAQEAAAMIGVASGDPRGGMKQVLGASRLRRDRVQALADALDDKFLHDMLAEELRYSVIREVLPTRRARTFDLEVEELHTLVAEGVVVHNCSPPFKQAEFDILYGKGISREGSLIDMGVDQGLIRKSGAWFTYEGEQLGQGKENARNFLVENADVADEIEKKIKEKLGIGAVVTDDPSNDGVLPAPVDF

[8] = target: T4, Replicative DNA helicase DnaB (Mycobacterium tuberculosis, UniProt P9WMR3); experiment: DnaB intein splicing inhibitors, dose response, biochemical, cell-free fluorescence (AID 449749); type: functional
T4 sequence (P9WMR3 whole entry): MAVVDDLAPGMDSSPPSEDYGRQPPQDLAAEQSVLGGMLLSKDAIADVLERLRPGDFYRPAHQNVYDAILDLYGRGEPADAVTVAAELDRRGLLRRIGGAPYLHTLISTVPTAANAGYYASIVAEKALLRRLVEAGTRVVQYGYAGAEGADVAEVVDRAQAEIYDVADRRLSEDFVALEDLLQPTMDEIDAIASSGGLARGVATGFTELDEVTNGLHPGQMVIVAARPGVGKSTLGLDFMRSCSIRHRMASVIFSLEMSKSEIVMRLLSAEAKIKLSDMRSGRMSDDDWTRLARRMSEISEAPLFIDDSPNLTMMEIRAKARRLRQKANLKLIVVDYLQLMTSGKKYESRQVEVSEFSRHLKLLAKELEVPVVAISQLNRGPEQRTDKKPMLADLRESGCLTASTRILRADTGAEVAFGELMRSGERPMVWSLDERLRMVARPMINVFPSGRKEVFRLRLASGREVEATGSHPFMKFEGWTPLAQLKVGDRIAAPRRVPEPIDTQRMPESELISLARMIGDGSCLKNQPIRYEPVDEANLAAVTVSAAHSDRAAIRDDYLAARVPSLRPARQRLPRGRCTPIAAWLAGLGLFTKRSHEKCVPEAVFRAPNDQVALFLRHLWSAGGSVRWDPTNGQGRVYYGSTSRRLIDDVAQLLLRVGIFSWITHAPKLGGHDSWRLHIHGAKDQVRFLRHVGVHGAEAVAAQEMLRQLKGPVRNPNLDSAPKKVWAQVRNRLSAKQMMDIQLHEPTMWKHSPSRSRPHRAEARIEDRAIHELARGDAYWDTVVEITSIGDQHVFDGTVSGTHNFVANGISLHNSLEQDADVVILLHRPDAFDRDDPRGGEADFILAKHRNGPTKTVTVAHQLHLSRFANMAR

Chain of G-protein coupled receptor 55 (Q9Y2T6 whole entry): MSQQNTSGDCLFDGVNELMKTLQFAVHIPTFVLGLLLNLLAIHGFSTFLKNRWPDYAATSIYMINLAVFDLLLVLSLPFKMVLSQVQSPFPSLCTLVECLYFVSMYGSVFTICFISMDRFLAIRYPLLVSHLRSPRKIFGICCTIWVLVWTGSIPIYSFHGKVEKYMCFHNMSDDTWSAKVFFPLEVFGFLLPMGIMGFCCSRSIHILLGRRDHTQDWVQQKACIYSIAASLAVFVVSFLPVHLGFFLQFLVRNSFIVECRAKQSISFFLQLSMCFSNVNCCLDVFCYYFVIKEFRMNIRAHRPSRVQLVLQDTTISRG
Chain of Cytochrome P450 2C9 (P11712 whole entry): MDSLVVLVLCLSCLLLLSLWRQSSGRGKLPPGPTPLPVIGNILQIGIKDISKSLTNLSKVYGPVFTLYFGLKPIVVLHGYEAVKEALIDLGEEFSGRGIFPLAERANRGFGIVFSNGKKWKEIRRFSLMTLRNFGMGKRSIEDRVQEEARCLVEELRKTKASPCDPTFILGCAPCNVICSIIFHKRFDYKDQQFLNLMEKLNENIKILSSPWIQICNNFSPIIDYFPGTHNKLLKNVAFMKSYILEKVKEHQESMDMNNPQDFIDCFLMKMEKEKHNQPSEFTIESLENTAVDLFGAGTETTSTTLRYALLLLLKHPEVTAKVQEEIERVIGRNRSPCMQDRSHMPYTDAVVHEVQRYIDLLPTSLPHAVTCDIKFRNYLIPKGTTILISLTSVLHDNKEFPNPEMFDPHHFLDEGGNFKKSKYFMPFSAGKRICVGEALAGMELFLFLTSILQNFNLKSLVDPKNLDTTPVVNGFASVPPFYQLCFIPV
Chain of Beta-galactosidase (Q8VNN2 whole entry): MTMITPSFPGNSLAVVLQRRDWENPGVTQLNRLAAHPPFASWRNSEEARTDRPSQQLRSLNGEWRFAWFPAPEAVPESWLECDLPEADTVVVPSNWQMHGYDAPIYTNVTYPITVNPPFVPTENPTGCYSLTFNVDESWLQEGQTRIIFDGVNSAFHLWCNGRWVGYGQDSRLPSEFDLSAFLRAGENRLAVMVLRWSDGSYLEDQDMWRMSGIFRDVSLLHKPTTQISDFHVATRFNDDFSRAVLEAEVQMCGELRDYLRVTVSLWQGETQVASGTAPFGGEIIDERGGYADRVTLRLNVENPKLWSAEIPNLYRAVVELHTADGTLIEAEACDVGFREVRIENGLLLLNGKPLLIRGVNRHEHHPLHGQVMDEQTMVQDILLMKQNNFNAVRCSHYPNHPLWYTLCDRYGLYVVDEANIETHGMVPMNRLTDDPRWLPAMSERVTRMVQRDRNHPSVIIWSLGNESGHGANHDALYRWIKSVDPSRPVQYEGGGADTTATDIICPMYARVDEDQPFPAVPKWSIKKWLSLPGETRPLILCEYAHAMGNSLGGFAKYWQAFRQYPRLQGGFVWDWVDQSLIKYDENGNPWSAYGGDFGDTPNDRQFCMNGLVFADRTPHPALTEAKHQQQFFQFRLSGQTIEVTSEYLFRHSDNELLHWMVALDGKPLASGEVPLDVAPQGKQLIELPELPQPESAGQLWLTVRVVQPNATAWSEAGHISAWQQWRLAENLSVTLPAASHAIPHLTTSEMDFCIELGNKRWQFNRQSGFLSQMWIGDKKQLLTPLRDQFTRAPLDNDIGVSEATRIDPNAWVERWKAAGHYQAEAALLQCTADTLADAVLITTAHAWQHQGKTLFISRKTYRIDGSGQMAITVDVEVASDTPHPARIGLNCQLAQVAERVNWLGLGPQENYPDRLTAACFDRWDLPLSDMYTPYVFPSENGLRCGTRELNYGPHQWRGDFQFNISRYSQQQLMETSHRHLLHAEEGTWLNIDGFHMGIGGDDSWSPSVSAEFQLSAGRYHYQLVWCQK
Chain of Cytochrome P450 2C19 (P33261 whole entry): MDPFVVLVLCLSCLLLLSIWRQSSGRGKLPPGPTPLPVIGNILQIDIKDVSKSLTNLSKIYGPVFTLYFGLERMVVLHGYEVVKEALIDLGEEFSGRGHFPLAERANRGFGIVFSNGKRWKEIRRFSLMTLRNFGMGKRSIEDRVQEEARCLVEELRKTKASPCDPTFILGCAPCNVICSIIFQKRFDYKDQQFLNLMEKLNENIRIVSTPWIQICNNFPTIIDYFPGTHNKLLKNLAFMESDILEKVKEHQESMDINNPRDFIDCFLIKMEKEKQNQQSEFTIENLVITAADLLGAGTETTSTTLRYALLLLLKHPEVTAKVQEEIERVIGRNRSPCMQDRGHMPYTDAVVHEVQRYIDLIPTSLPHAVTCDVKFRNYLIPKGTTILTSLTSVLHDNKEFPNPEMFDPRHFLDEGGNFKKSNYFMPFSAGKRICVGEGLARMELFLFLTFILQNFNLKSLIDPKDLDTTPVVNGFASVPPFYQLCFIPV

CCC(=O)NC(=S)NNC(=O)c1ccc(O)cc1
IC50 (Bcl-2-related protein A1): > 20 µM (inactive) | IC50 [1]: 12.2 µM (active) | IC50 [2]: 8.9 µM (active)

O=C1Nc2ccc(Br)cc2/C1=C/C(=O)c1ccccc1
CC50 (Vero): 19.1 µM (active) | AC50 [3]: 0.986 µM (active) | EC50 (HEK293 [4]): > 59.6 µM (inactive) | IC50 (Beta-galactosidase): > 66.6 µM (inactive) | EC50 (HEK293 [5]): > 59.6 µM (inactive)

COc1ccc(NC(=O)c2ccc(C)cc2Cl)c([N+](=O)[O-])c1
AC50 (Cytochrome P450 2C9): inconclusive | AC50 (Cytochrome P450 2C19): 3.55 µM (inconclusive)

CCN1C(=O)c2cccc3c(NC(=O)c4ccc(S(=O)(=O)N5CCOCC5)cc4)ccc1c23
IC50 (Bcl-2-related protein A1): > 20 µM (inactive) | IC50 [1]: 10.4 µM (active) | IC50 [2]: 9.74 µM (active)

O=C(CCCN1C(=O)/C(=C\c2cccs2)SC1=S)Nc1ccc(O)cc1
CC50 [6]: 12.5 µM (active) | IC50 [7]: 29.5 µM (inactive) | EC50 (Protein RecA): 5.95 µM (active) | AC50 [8]: 2.19 µM (active)
